Read-outs that look alike come from different tables or passages of the source.
What was measured:
[1] = tested on: HCT116: human colon cancer cell line; assay: Growth inhibition (cytotoxicity, WST-8) of HCT116 cells expressing only a low level of microsomal dipeptidase; type: cell-based; settings: Homo sapiens, HCT-116, drug exposure time, read-out: Cytotoxicity (IC50 in nM) HCT116
Method: The activation of the compounds is mediated by microsomal dipeptidase. The inhibitory activities of the compounds is determined against growth of the cells expressing a low level of microsomal dipeptidase, those expressing a high level of microsomal dipeptidase, and granulocyte progenitors that are expanded ex vivo. […] A stable transfectant, HCT116/S5, into which the human microsomal dipeptidase cDNA (herafter called MDP) connected to the CMV promoter was transfected, is used as the cells expressing a high level of microsomal dipeptidase. […] HCT116, HCT116/S5, and granulocyte porogenitors are cultured in the absence and presence of the drugs. […] The IC50 values are determined and compared among HCT116, HCT116/S5, and granulocyte porogenitors.
Transfection of the DNA was carried out by using TransIT-LT2 (PanVera, Madison, USA, Calatog No. MIR2320) according to the manufacturer's instruction. […] The cells that grew in the presence of 1 mg/ml G418 were collected and cultivated in MaCoy5A medium.
By using 96-multi well plates, approximately 2×10^3 cells per well of the HCT116 bearing pRC/CMV and HCT116S5 carrying pRC/CMV-MDP were cultured in 200 μl of McCoy5A medium supplemented with 10% FBS in the presence or absence of the indicated concentrations of the drugs at 37° C. under 5% CO2 in humidified air. The cells were exposed to drugs for 24 hr (taxol, camptothecins and their prodrugs) or 96 hr (DMDC and its compounds). When the drug exposure time to the cells was 24 hr, culture medium containing drugs were removed, and the cells were washed and suspended in the fresh medium without drugs and further cultured at 37° C. under 5% CO2 in humidified air for the indicated days. […] To examine the effects of drugs on granulocyte progenitors, the granulocyte progenitors, which were expanded on a monolayer of MS-5 for 7 days, were collected and washed with RPMI1640 medium. Approximately 5000 cells were suspended in 200 μl of RPMI medium supplemented with 10% FBS and 50 ng/ml of G-CSF in the presence or absence of drugs and cultured in the presence of drugs for 24 hr (taxol, camptothecins and their prodrugs) or 7 days (DMDC and its prodrug) at 37° C. under 5% CO2 in humidified air. When the exposure time of drugs to the cells was 24 hr, the drugs were removed at 24 hr after addition of drugs by washing the cells with the above medium, and the cells were further cultured for 6 days in the same medium without drugs.

[2] = Growth inhibition (cytotoxicity, WST-1) of granulocyte progenitors expanded ex vivo (CFU-GM); type: cell-based, human; settings: human, drug exposure time; for IC50 at 24 h: then cultured for 6 days without drugs
Method: (§1) The activation of the compounds is mediated by microsomal dipeptidase. The inhibitory activities of the compounds is determined against growth of the cells expressing a low level of microsomal dipeptidase, those expressing a high level of microsomal dipeptidase, and granulocyte progenitors that are expanded ex vivo. The human colon cancer cell line, HCT116 (American Type Culture Collection No. CCL-247), and granulocyte progenitors are used as the cells expressing only a low level of microsomal dipeptidase. A stable transfectant, HCT116/S5, into which the human microsomal dipeptidase cDNA (herafter called MDP) connected to the CMV promoter was transfected, is used as the cells expressing a high level of microsomal dipeptidase. The dipeptidase cDNA (Satoh et al. Biotechnol. Prog. 10 (2), 134-140 (1994)) and other references) and the cloning procedures as mentioned are known in the art. HCT116, HCT116/S5, and granulocyte porogenitors are cultured in the absence and presence of the drugs. […] The IC50 values are determined and compared among HCT116, HCT116/S5, and granulocyte porogenitors. Although time duration of the exposure of the cells to the drugs varies depending on the cells and drugs, it can be 24 hr, 96 or 168 hr.
CD34-positive mononuclear cells derived from the human umbilical cord blood and bone marrow (Veritas Co, Tokyo, Japan, Catalog No.CB009F, ABM019F) were cultured on a confluent monolayer of MS5 (Itoh, K., et al. Reproducible establishment of hematopoietic supportive stromal cells from murine bone marrow. Exp. Hematol. 17, 145-153 (1989)). Mouse stromal cell lines in alpha MEM medium (Life Technologies, Gaithersburg, USA, Catalog No.12571-0063) supplemented with 10% (v/v) horse serum (HS) (Stem Cell Technologies, Vancouver, Canada, Catalog No. 06750), 10% (v/v) fetal bovine serum (FBS) (Stem Cell Technologies, Vancouver, Canada, Catalog No.06450), 50 ng/ml Flt3 ligand (PeproTec EC., London, UK., Catalog No. 300-19), 100 ng/ml SCF (PeproTech EC, London, UK., Catalog No. 300-07), and 50 ng/ml TPO (PeproTech EC, London, England, Catalog No. 300-18) at 37° C. under 5% CO2 in humidified air. Floating hematopoietic cells were collected and stained by monoclonal antibodies against PerCP-anti-CD34 (BD pharMingen, San Diego, USA, Catalog No.340430), PE-anti-CD13 (BD pharMingen, San Diego, USA, Catalog No. 30525X) and FlTC-anti-15(BD pharMingen, SanDiego, USA, Catalog No. PM30525X). Five microlitter of each antibody was added to a […] of cell suspension and incubated at 4° C. for 25 min. After washing with PBS containing 10% (v/v) FCS, the expression of CD antigens were detected by using FACSCalibur (Becton Dickinson, Franklin Lakes, N.J., USA) according to the FACSCalibur Traing mannual (FACStation ver1.1. Becton Dickinson, Franklin Lakes, N.J., USA.). […]

[3] = tested on: HCT116/S5: HCT116 transfected with the human microsomal dipeptidase cDNA; assay: Growth inhibition (cytotoxicity, WST-8) of HCT116/S5 cells expressing a high level of microsomal dipeptidase; type: cell-based; settings: for Growth inhibition compared among HCT116, HCT116/S5 and granulocyte progenitor cells: HCT116/S5 (high microsomal dipeptidase) versus HCT116 and granulocyte progenitor cells (very little activity); for IC50: Homo sapiens, HCT-116, drug exposure time, read-out: Cytotoxicity (IC50 in nM) HCT116/S5
Method: as §1
Transfection of the DNA was carried out by using TransIT-LT2 (PanVera, Madison, USA, Calatog No. MIR2320) according to the manufacturer's instruction. The resulting transfectants were cultivated in MaCoy5A medium (Sigma, St Louis, USA, Catalog No. M8403) supplemented with 10% (v/v) fetal bovine serum and 1 mg/ml of geneticin disulfate (Wako, Osaka, Japan, Catalog No. 535-24624). The cells that grew in the presence of 1 mg/ml G418 were collected and cultivated in MaCoy5A medium.
By using 96-multi well plates, approximately 2×10^3 cells per well of the HCT116 bearing pRC/CMV and HCT116S5 carrying pRC/CMV-MDP were cultured in 200 μl of McCoy5A medium supplemented with 10% FBS in the presence or absence of the indicated concentrations of the drugs at 37° C. under 5% CO2 in humidified air. The cells were exposed to drugs for 24 hr (taxol, camptothecins and their prodrugs) or 96 hr (DMDC and its compounds). When the drug exposure time to the cells was 24 hr, culture medium containing drugs were removed, and the cells were washed and suspended in the fresh medium without drugs and further cultured at 37° C. under 5% CO2 in humidified air for the indicated days. Then, 10 μl of WST-8 (Cell Counting Kit-8, Wako, Osaka, Japan, Catalog No.343-07623) were added to the cultures, and the cells were further incubated at 37° C. for 1 or 2 hr. Cell growth inhibition was calculated as IC50 values according to optical densities at 450 nm and at 655 nm. To examine the effects of drugs on granulocyte progenitors, the granulocyte progenitors, which were expanded on a monolayer of MS-5 for 7 days, were collected and washed with RPMI1640 medium. Approximately 5000 cells were suspended in 200 μl of RPMI medium supplemented with 10% FBS and 50 ng/ml of G-CSF in the presence or absence of drugs and cultured in the presence of drugs for 24 hr (taxol, camptothecins and their prodrugs) or 7 days (DMDC and its prodrug) at 37° C. under 5% CO2 in humidified air. When the exposure time of drugs to the cells was 24 hr, the drugs were removed at 24 hr after addition of drugs by washing the cells with the above medium, and the cells were further cultured for 6 days in the same medium without drugs. Therafter, 20 μl of WST-1 (Roche Diagnostics, Mannheim, Germany, Catalog No. 1644807) were added to the cultures, and the cells were further incubated at 37° C. for 6 hr. Cell growth inhibition was calculated as IC50 values according to optical densities at 450 nm and at 655 nm.

[4] = 24 hr, then drug removed and cells cultured further

## C=C1[C@H](n2ccc(N)nc2=O)O[C@H](CO)[C@H]1O [DMDC, 2′-deoxy-2′-methylidenecytidine, reference compound]
[1]; 96 hr
  IC50: 0.2 nM
[2]; 168 hr (7 days)
  IC50 at 168 h: 0.07 nM
[3]
  Growth inhibition compared among HCT116, HCT116/S5 and granulocyte progenitor cells: not significantly different
[3]; 96 hr
  IC50: 0.3 nM

## CC(=O)O[C@H]1C(=O)[C@@]2(C)[C@H]([C@H](OC(=O)c3ccccc3)[C@]3(O)C[C@H](OC(=O)[C@H](O)[C@@H](NC(=O)c4ccccc4)c4ccccc4)C(C)=C1C3(C)C)[C@]1(OC(C)=O)CO[C@@H]1C[C@@H]2O (relative stereo) [Paclitaxel, [2aR-[2aα,4β,4aβ,6β,9α(αR*,βS*),11α,12α,12aα,12bα]]-β-(benzoylamino)-α-hydroxybenzenepropanoic acid 6,12b-bis(acetyloxy)-12-(benzoyloxy)-2a,3,4,4a,5,6,9,10,11,12,12a,12b-dodecahydro-4,11-dihydroxy-4a,8,13,13-tetramethyl-5-oxo-7,11-methano-1H-cyclodeca[3,4]benz[1,2-b]oxet-9-yl ester, reference compound]
[1]; [4]
  IC50: 2.5 nM
[2]
  IC50 at 24 h: 16 nM
[3]
  Growth inhibition compared among HCT116, HCT116/S5 and granulocyte progenitor cells: not significantly different

## CC[C@@]1(O)C(=O)OCc2c1cc1n(c2=O)Cc2cc3ccccc3nc2-1 [Camptothecin, 4(S)-ethyl-4-hydroxy-1H-pyrano[3′,4′:6,7]indolizino[1,2-b]quinoline-3,14(4H,12H)-dione, reference compound]
[1]; [4]
  IC50: 19 nM
[2]
  IC50 at 24 h: 6.1 nM
[3]
  Growth inhibition compared among HCT116, HCT116/S5 and granulocyte progenitor cells: not significantly different
[3]; [4]
  IC50: 5.6 nM

— US20030138864A1, “Method for identifying an enzyme to design anti-cancer compounds” (priority 2001, published 2003)
